In one test the test system is S. filipinensis IFO12860. As to the kind of experiment: Streptomycin sensitivity of S. filipinensis IFO12860. Type of test: cell-based. The conditions noted are these: Streptomyces filipinensis, IFO12860, read-out: Streptomycin sensitivity (M.I.C.). On the procedure:
(§1) The taxonomic studies were done according to the procedure adopted by the International Streptomyces Project (ISP) using the media recommended by Shining, E. B. and D. Gottlieb (Method for characterization of Streptomyces species; Intern. J. Syst. Bact. 16:313-340, 1966) and by Waksman, S. A. (Classification, identification and description of genera and species; in The Actinomycetes Vol. II; The Williams and Wilkins Co., Baltimore, 1961). All cultures were incubated at 27° C. for 15 days. The colour scheme in the Colour Harmony Manual (4th ed., 1958; Container Corporation of America, Chicago) was used to describe the pigmentation of the colonies. Sodium chloride tolerance of the strains and their growth at various temperatures were tested on ISP medium No. 3 (Difco) containing 0.15% yeast extract; and streptomycin sensitivity of the strains were tested on ISP medium No. Z (Difco).

Another test relates to strain NR0484. Briefly: Streptomycin sensitivity of strain NR0484. Type of test: cell-based, Streptomyces sp. NR0484 (Streptomyces filipinensis). Conditions: Streptomyces, ISP medium No. Z (Difco), read-out: Streptomycin sensitivity (M.I.C.). On the procedure:
as §1

The next test deals with T1, DNA gyrase (Escherichia coli, UniProt P0AES6).
T1 construct: supercoiling of relaxed pUC18 plasmid
As to the kind of experiment: Inhibition of DNA gyrase activity (DNA gyrase supercoiling assay). It is filed as biochemical, E. coli H560. The conditions noted are these: relaxed PUC18 substrate. As for the experimental part:
The inhibition of DNA gyrase activity was measured using a DNA gyrase supercoiling assay according to R. Otter & N. Cozzarelli:Methods in Enzymology, Vol. 100, pp 171-180 (1983). DNA gyrase was isolated from E. coli H560, and relaxed PUC18 plasmed was used as substrate. The activities as regards inhibition of DNA gyrase activity, expressed as maximum non-effective concentration of the test compound (MNC in μg/ml) are compiled in the following Table 4: […]

For the next test, the system named is E. coli DC2. Briefly: Antibacterial activity in vitro (MIC, agar dilution). It is filed as cell-based. The conditions noted are these: Escherichia coli, agar dilution (BB2 + 1% Isovitalex + 7.5% sheep blood + metadione), inoculum 10^4 CFU/spot, read-out: minimum inhibitory concentration (MIC). (In agar dilution, organisms are placed on agar that contains the substance at set levels.)

In another test the test system is N. meningitidis 69480. Described as above. Conditions: Neisseria meningitidis, agar dilution (BB2 + 1% Isovitalex + 7.5% sheep blood + metadione), inoculum 10^4 CFU/spot, read-out: minimum inhibitory concentration (MIC). It is filed as cell-based.
A further test relates to B. catarrhalis RA 117. Described as above. It is filed as cell-based. The conditions noted are these: Moraxella catarrhalis, RA117, agar dilution (BB2 + 1% Isovitalex + 7.5% sheep blood + metadione), inoculum 10^4 CFU/spot, read-out: minimum inhibitory concentration (MIC). From the text:
(§2) In the following table there are complied the minimum inhibitory concentrations (MIC; μg/ml) of some representative compounds of formula I against a series of pathogenic microorganisms.
(§3) Agar dilution (BB2 + 1% Isovitalex + 7.5% sheep blood + metadione),
(§4) Inoculum: 10^4 CFU/spot;

A further test relates to S. aureus 25923. The test is described as above. It is filed as cell-based. Conditions: Staphylococcus aureus, agar dilution (BB2 + 1% Isovitalex + 7.5% sheep blood + metadione), inoculum 10^4 CFU/spot, read-out: minimum inhibitory concentration (MIC).
Text: as §2, §3, §4

The next test concerns S. aureus 887. The test is described as above. The conditions noted are these: Staphylococcus aureus, agar dilution (BB2 + 1% Isovitalex + 7.5% sheep blood + metadione), inoculum 10^4 CFU/spot, read-out: minimum inhibitory concentration (MIC). Type of test: cell-based.
Text: as §2, §3, §4

In a further test the test system is E. coli B. Described as above. Type of test: cell-based. The conditions noted are these: Escherichia coli, agar dilution (BB2 + 1% Isovitalex + 7.5% sheep blood + metadione), inoculum 10^4 CFU/spot, read-out: minimum inhibitory concentration (MIC).
Text: as §2, §3, §4

The test system of a further test is S. pyogenes 15. The description is as above. It is filed as cell-based. The conditions noted are these: Streptococcus pyogenes, agar dilution (BB2 + 1% Isovitalex + 7.5% sheep blood + metadione), inoculum 10^4 CFU/spot, read-out: minimum inhibitory concentration (MIC).
Text: as §2, §3, §4

The subject of the next test is S. faecalis 6. Described as above. It is filed as cell-based. Conditions: Enterococcus faecalis, agar dilution (BB2 + 1% Isovitalex + 7.5% sheep blood + metadione), inoculum 10^4 CFU/spot, read-out: minimum inhibitory concentration (MIC).
Text: as §2, §3, §4

The structures appear in SMILES notation. In brackets after ≈: the same amount, converted by molar mass.

As to `[H]/N=C(/N)N[C@H]1[C@H](O)[C@@H](O)[C@H](O[C@@H]2O[C@@H](C)[C@](O)(C=O)[C@H]2O[C@@H]2O[C@@H](CO)[C@H](O)[C@@H](O)[C@@H]2NC)[C@@H](N/C(N)=N\[H])[C@@H]1O` [Streptomycin], the MIC in the test with S. filipinensis IFO12860 and in the test on strain NR0484 was 6300 µg/mL (≈ 10.8 mM) each time.
As for `CO/N=C(\C(=O)N[C@H]1COC(=O)c2c(C)c(OC(C)=O)cc(OC(C)=O)c2CSC[C@@H](C(=O)OC)NC1=O)c1csc(N)n1` [Example 10, methyl (4R,7S)-12,14-diacetoxy-7-[(Z)-2-(2-amino-4-thiazolyl) -2-(methoxyimino)acetamido]-1,3,4,5,6,7,8,10-octahydro-11-methyl-6,10-dioxo-9,2,5-benzoxathiaazacyclododecine-4-carboxylate], the “maximum non-effective concentration of the test compound (MNC)” value (“maximum non-effective concentration” for short) on DNA gyrase amounted to 10 µg/mL.
Take `C=CCNC(=O)[C@@H]1CSCc2c(O)cc(OC)c(C)c2C(=O)OC[C@H](NC(=O)OC(C)(C)C)C(=O)N1` [Example 84, (4R,7S)-7-tert-butoxycarbonylamino-1,3,4,5,6,7,8,10-octahydro-14-hydroxy-l2-methoxy-11-methyl-6,10-dioxo-9,2,5-benzoxathiaazacyclododecine-4-carboxylic acid allylamide]: the MIC is over 128 µg/mL in the test on E. coli DC2; 4 µg/mL with N. meningitidis 69480; 4 µg/mL in the test with B. catarrhalis RA 117; 32 µg/mL in the test with S. aureus 25923; 16 µg/mL with S. aureus 887; over 128 µg/mL in the test on E. coli B. Also, the MIC with S. pyogenes 15 is 16 µg/mL; with S. faecalis 6 it was 32 µg/mL. For the same molecule, on DNA gyrase, the “maximum non-effective concentration” value stood at 0.1 µg/mL.
Regarding `CCOC(=O)[C@@H]1CSCc2c(O)cc(OC)c(C)c2C(=O)OC[C@H](NC(C)=S)C(=O)N1` [Example 102, ethyl (4R,7S)-1,3,4,5,6,7,8,10-octahydro-14-hydroxy-12-methoxy-11-methyl-6,10-dioxo-7-thioacetamido-9,2,5-benzoxathiaazacyclododecine-4-carboxylate], the MIC with E. coli DC2 amounted to 64 µg/mL; with N. meningitidis 69480, 2 µg/mL; in the test with B. catarrhalis RA 117 it was 2 µg/mL; in the test on S. aureus 25923 it was 16 µg/mL; with S. aureus 887, 8 µg/mL; with E. coli B, 64 µg/mL. Moreover, the MIC amounted to 8 µg/mL in the test on S. pyogenes 15 and 16 µg/mL with S. faecalis 6. Further, the “maximum non-effective concentration” value at DNA gyrase stood at 0.25 µg/mL.
Take `COC(=O)[C@@H]1CSCc2c(O)cc(O)c(C)c2C(=O)OC[C@H](NC(=O)OC(C)(C)C)C(=O)N1` [Example 2, t-butyl (4R,7S)-1,3,4,5,6,7,8,10-octahydro-12,14-dihydroxy-4-methoxycarbonyl-11-methyl-6,10-dioxo-9,2,5-benzoxathiaazacyclododecine-7-carbamate]: the “maximum non-effective concentration” value at DNA gyrase is 0.1 µg/mL; on DNA gyrase (listed as 13), 0.05 µg/mL.
In the case of `COC(=O)[C@@H]1CSCc2c(OC(C)=O)cc(OC(C)=O)c(C)c2C(=O)OC[C@H](N)C(=O)N1` [Example 5, methyl (4R,7S)-12,14-diacetoxy-7-amino-1,3,4,5,6,7,8,10-octahydro-11-methyl-6,10-dioxo-9,2,5-benzoxathiaazacyclododecine-4-carboxylate], the “maximum non-effective concentration” value on DNA gyrase is 10 µg/mL.
For the molecule `Cc1c(O)cc(O)c2c1C(=O)OC[C@H](N)C(=O)N[C@H](C(=O)O)CSC2` [Example 4, (4R,7S)-7-amino-1,3,4,5,6,7,8,10-octahydro-12,14-dihydro-11-methyl-6,10-dioxo-9,2,5-benzoxathiaazacyclododecine-4-carboxylic acid], the “maximum non-effective concentration” value at DNA gyrase worked out at 1 µg/mL.
For `COC(=O)N[C@H]1COC(=O)c2c(C)c(OC)cc(O)c2CSC[C@@H](C(=O)OC)NC1=O` [Example 137, Methyl (4R,7S)-1,3,4,5,6,7,8,10-octahydro-14-hydroxy-12-methoxy-4-methoxycarbonyl-11-methyl-6,10-dioxo-9,2,5-benzoxathiaazacyclododecine-7-carbamate], the MIC in the test on E. coli DC2 came to 64 µg/mL; with N. meningitidis 69480, 8 µg/mL; in the test with B. catarrhalis RA 117 it was 4 µg/mL; in the test with S. aureus 25923 it was 128 µg/mL; with S. aureus 887, 32 µg/mL; with E. coli B, 64 µg/mL. The MIC stood at 8 µg/mL in the test on S. pyogenes 15 and 64 µg/mL with S. faecalis 6. In addition, the “maximum non-effective concentration” value on DNA gyrase amounted to 0.2 µg/mL.
`Cc1c(O)cc(O)c2c1C(=O)OC[C@H](NC(=O)OC(C)(C)C)C(=O)N[C@H](C(=O)O)CSC2` [Example 3, (4R,7S)-7-(L-t-butoxyformamido)-1,3,4,5,6,7,8,10-octahydro-12,14-dihydroxy-11-methyl-6,10-dioxo-9,2,5-benzoxathiaazacyclododecine-4-carboxylic acid]: the “maximum non-effective concentration” value at DNA gyrase stood at 5 µg/mL.
Still for that read-out and setting: as for `COC(=O)[C@@H]1CSCc2c(O)cc(O)c(C)c2C(=O)OC[C@H](N)C(=O)N1` [Example 6, methyl (4R,7S)-7-amino-1,3,4,5,6,7,8,10-octahydro-12,14-dihydro-11-methyl-6,10-dioxo-9,2,5-benzoxathiaazacyclododecine-4-carboxylate], the figure is 2 µg/mL.
Take `COC(=O)[C@@H]1CSCc2c(O)cc(OC)c(C)c2C(=O)OC[C@H](O)C(=O)N1` [Example 41, methyl (4R,7S)-1,3,4,5,6,7,8,10-octahydro-7,14-dihydroxy-12-methoxy-11-methyl-6,10-dioxo-9,2,5-benzoxathiaazacyclododecine-4-carboxylate]: the MIC with N. meningitidis 69480 is 8 µg/mL; with B. catarrhalis RA 117 it was 4 µg/mL; in the test with S. aureus 25923, 32 µg/mL; with S. aureus 887 it was 32 µg/mL; with E. coli B it was 128 µg/mL; in the test with S. pyogenes 15 it was 16 µg/mL. In addition, the MIC with S. faecalis 6 is 32 µg/mL. Moreover, the “maximum non-effective concentration” value on DNA gyrase amounted to 0.1 µg/mL.
Turning to `COC(=O)[C@@H]1CSCc2c(O)cc(OC)cc2C(=O)OCCC(=S)N1` [Example 101, methyl (4R)-1,3,4,5,6,7,8,10-octahydro-14-hydroxy-12-methoxy-10-oxo-6-thioxo-9,2,5-benzoxathiaazacyclododecine-4-carboxylate], the MIC with E. coli DC2 amounted to 64 µg/mL; with N. meningitidis 69480 it was 8 µg/mL; in the test on B. catarrhalis RA 117, 4 µg/mL; in the test with S. aureus 25923, 16 µg/mL; in the test on S. aureus 887 it was 16 µg/mL; with E. coli B it was 64 µg/mL. The MIC was 16 µg/mL in the test with S. pyogenes 15 and 32 µg/mL in the test with S. faecalis 6. For the same molecule, the “maximum non-effective concentration” value on DNA gyrase was determined as 0.1 µg/mL.
Take `Cc1c(O)cc(O)c2c1C(=O)OC[C@H](N)C(=O)NCCSC2` [Example 9, (S)-7-amino-4,5,7,8-tetrahydro-12,14-dihydroxy-11-methyl-9,2,5-benzoxathiaazacyclododecine-6,10(1H,3H)-dione]: the “maximum non-effective concentration” value at DNA gyrase worked out at 1 µg/mL.
In the case of `CCOC(=O)[C@@H]1CSCc2c(O)cc(OC)c(C)c2C(=O)OC[C@H](NC=O)C(=O)N1` [Example 69, ethyl (4R,7S)-7-formamido-1,3,4,5,6,7,8,10-octahydro-14-hydroxy-12-methoxy-11-methyl-6,10-dioxo-9,2,5-benzoxathiaazacyclododecine-4-carboxylate], the MIC in the test on E. coli DC2 worked out at 16 µg/mL; in the test with B. catarrhalis RA 117, 4 µg/mL; in the test on S. aureus 25923, 128 µg/mL; in the test on S. aureus 887 it was 32 µg/mL; with E. coli B it was 32 µg/mL; with S. pyogenes 15, 4 µg/mL. Besides, the MIC in the test on S. faecalis 6 stood at 16 µg/mL. The “maximum non-effective concentration” value at DNA gyrase turned out to be 0.05 µg/mL.

These data come from patent publication US5294609A, “DNA gyrase inhibitors and pharmaceutical preparations therefor” (Hoffmann-LaRoche Inc., priority 1991, dated 1994).
